Measurements published in patent US12708644B2, “Dendritic cell vaccination sequential to chemotherapy” (Excoso a.s., priority 2018, dated 2026).
Like-named read-outs stand apart in the source and are kept apart here. Marks after values point to notes of the source that are not given here.

Assays:
[1] = tested on: first-line patients of ovarian carcinoma; conditions: cited from earlier work; for OS HR: compared to patients not treated with bevacizumab; for PFS HR: continuous after combination with carboplatin/paclitaxel
[2] = tested on: women with newly diagnosed epithelial ovarian carcinoma
Experimental: The study was conducted as an open label, multicenter, three-arm phase II clinical trial in women with newly diagnosed epithelial ovarian carcinoma, who have undergone debulking surgery.
The planned number of chemotherapy cycles was 6 in all treatment groups (FIG. 1).
Results were calculated either by using as beginning of the trial period the time of first treatment or the time of randomization. Two pre-planned per protocol interim analyses of PFS and OS from the date of randomization were performed first at 6 months and second at 12 months after the last dose of standard of care chemotherapy of the last enrolled patient. […]
A log-rank test was used for comparing the PFS and OS distributions of the two treatment groups: • H01: PFS/OS group A=PFS/OS group C vs H11: PFS/OS group C≠PFS/OS group A, • H02: PFS/OS group B=PFS/OS group C vs H12: PFS/OS group C≠PFS/OS group B.
The hazard ratio (HR) was calculated using Cox proportional hazard regression. The estimate for the HR was based on fitting a proportional hazards regression model: λ(t)=λ0(t)*exp(βz), • wherein λ0(t) is the baseline hazard function for group C, λ(t) is the hazard function for group A/group B, z is a binary covariate (being 1 for group A/group B and 0 for group C), and exp(β) is the HR. Efficacy in the ITT Population

[3] = bevacizumab 7.5 mg/kg IV q3w, 12 months
[4] = bevacizumab 15 mg/kg IV q3w, 15 months
[5] = treatment group C (standard of care chemotherapy alone), shorter reporting time period

**Q.** Which “OS HR” value [1, 3] does the source give for bevacizumab here?
**A.** The value was 0.99.

**Q.** And the “OS HR” value ([1]; bevacizumab 7.5 mg/kg IV q3w, 12 months, listed as Bevacizumab)?
**A.** Its value is 0.99^c.

**Q.** What about the “PFS HR” value [1, 3] of the same substance?
**A.** The value was 0.86^c.

**Q.** And the “OS HR” value [1, 4]?
**A.** Its value is 0.88.

**Q.** What about the “OS HR” value ([1]; bevacizumab 15 mg/kg IV q3w, 15 months, listed as Bevacizumab) of the same substance?
**A.** Its value is 0.88^c.

**Q.** What about the “PFS HR” value [1, 4] of the same substance?
**A.** The value was 0.7^c.

**Q.** What about the Safety ([1]; side effects e.g. gastrointestinal perforation and fistulae, wound healing complications, hypertension, thromboembolism or haemorrhage, congestive heart failure, neutropenia and infections) of the same substance?
**A.** The Safety was “an increased risk for”.

**Q.** What does the source list for carboplatin and paclitaxel?
**A.** patients who have died ([2]; standard of care arm (group C), per-protocol population, more than 3.5 years after inclusion): about 40%; SAEs reported [2, 5]: 14; patients with SAEs [2, 5]: 9
